Results: US20090036492A1, “Novel Cercosporamide Derivative” (priority 2005, published 2009)

system: male KK mice; assay: Blood glucose lowering effect in diabetic KK mice; type: in vivo; settings: 15 to 20 weeks old, feed containing 0.03% of the compound, three days, blood glucose on the 3rd day vs control group
Source text: Six-week-old male KK mice were purchased from CLEA Japan, Inc. and then were fed until 15 to 20 weeks old and affected with diabetes. The mice were individually fed during the adaptation period and the test period, and water and feed (FR2, Funabashi Farm) were freely ingested.
At the start of the experiment, after body weight measurement, blood was collected from the tail vein of the mice into a heparin-coated glass tube and centrifuged, and then plasma was separated. The glucose level in the plasma was measured by Glucoloader GXT (A&T Corp.), and individuals having a blood glucose level of about 350 mg/dl or more were selected. Groups each having 3 to 4 mice were used for the experiment, and the mice were grouped to make the average body weight and the average blood glucose level similar. Each compound was administered to a compound administration group by feeding a mixture with feed containing 0.03% of the compound. A separate group in which the mice were fed only with feed was a control group.
The experiment period (drug administration period) was three days. The grouping day was the 0th day. On the 3rd day, body weight was measured and blood was collected from the tail vein to measure the blood glucose level.
The blood glucose lowering efficacy was determined by the following formula.
Blood glucose lowering efficacy=[(Control group blood glucose level−Compound administration group blood glucose level)/Control group blood glucose level]×100

Structure (SMILES)	Blood glucose lowering efficacy (%)
COc1cc(O)c2c(c1C(=O)NCc1ccc(Oc3ccccc3Cl)c3ccccc13)OC1=CC(O)=C(C(C)=O)C(=O)[C@]12C [Example 166, (9aS)-8-Acetyl-N-{[4-(2-chlorophenoxy)-1-naphthyl]methyl}-1,7-dihydroxy-3-methoxy-9a-methyl-9-oxo-9,9a-dihydrodibenzo[b,d]furan-4-carboxamide]	47

same assay, conditions: Mus musculus, po, 72 h, 15 to 20 weeks old, feed containing 0.03% of the compound, three days, blood glucose on the 3rd day vs control group, read-out: Blood glucose lowering efficacy (%)

Structure (SMILES)	inhibition in vivo at 0.03 % in feed [%]
COc1cc(O)c2c(c1C(=O)NCc1ccc(OCc3ccccc3Cl)c3ccccc13)OC1=CC(O)=C(C(C)=O)C(=O)[C@]12C [Example 147, (9aS)-8-Acetyl-N-({4-[(2-chlorobenzyl)oxy]-1-naphthyl}methyl)-1,7-dihydroxy-3-methoxy-9a-methyl-9-oxo-9,9a-dihydrodibenzo[b,d]furan-4-carboxamide]	62
C=CCO/N=C(\C)C1=C(O)C=C2Oc3c(C(=O)NCc4c(C)cc(NS(=O)(=O)c5ccc(Cl)cc5Cl)cc4C)c(OC)cc(O)c3[C@]2(C)C1=O [Example 162, (9aS)-8-[(1E)-N-(Allyloxy)ethaneimidoyl]-N-(4-{[(2,4-dichlorophenyl)sulfonyl]amino}-2,6-dimethylbenzyl)-1,7-dihydroxy-3-methoxy-9a-methyl-9-oxo-9,9a-dihydrodibenzo[b,d]furan-4-carboxamide]	43
COc1cc(O)c2c(c1C(=O)NCc1ccc(Oc3ccc(Cl)cc3Cl)c3ccccc13)OC1=CC(O)=C(C(C)=O)C(=O)[C@]12C [Example 164, (9aS)-8-Acetyl-N-{[4-(2,4-dichlorophenoxy)-1-naphthyl]methyl}-1,7-dihydroxy-3-methoxy-9a-methyl-9-oxo-9,9a-dihydrodibenzo[b,d]furan-4-carboxamide]	43
COc1cc(O)c2c(c1C(=O)NCc1ccc(Oc3ccc(Cl)cc3)c3ccccc13)OC1=CC(O)=C(C(C)=O)C(=O)[C@]12C [Example 167, (9aS)-8-Acetyl-N-{[4-(4-chlorophenoxy)-1-naphthyl]methyl}-1,7-dihydroxy-3-methoxy-9a-methyl-9-oxo-9,9a-dihydrodibenzo[b,d]furan-4-carboxamide]	30
COc1cc(O)c2c(c1C(=O)NCc1c(C)cc(C)c3ccccc13)OC1=CC(O)=C(C(C)=O)C(=O)[C@]12C [Example 171, (9aS)-8-Acetyl-1,7-dihydroxy-3-methoxy-9a-methyl-N-[(2,4-dimethyl-1-naphthyl)methyl]-9-oxo-9,9a-dihydrodibenzo[b,d]furan-4-carboxamide]	47
COc1cc(O)c2c(c1C(=O)NCc1c(C)ccc3c(F)cc(F)cc13)OC1=CC(O)=C(C(C)=O)C(=O)[C@]12C [Example 176, (9aS)-8-Acetyl-N-[(5,7-difluoro-2-methyl-1-naphthyl)methyl]-1,7-dihydroxy-3-methoxy-9a-methyl-9-oxo-9,9a-dihydrodibenzo[b,d]furan-4-carboxamide]	40
COc1cc(O)c2c(c1C(=O)NCc1c(C)cc(Br)c3ccccc13)OC1=CC(O)=C(C(C)=O)C(=O)[C@]12C [Example 177, (9aS)-8-Acetyl-N-[(4-bromo-2-methyl-1-naphthyl)methyl]-1,7-dihydroxy-3-methoxy-9a-methyl-9-oxo-9,9a-dihydrodibenzo[b,d]furan-4-carboxamide]	43
COc1cc(O)c2c(c1C(=O)NCc1c(C)cc(Cl)c3ccccc13)OC1=CC(O)=C(C(C)=O)C(=O)[C@]12C [Example 178, (9aS)-8-Acetyl-N-[(4-chloro-2-methyl-1-naphthyl)methyl]-1,7-dihydroxy-3-methoxy-9a-methyl-9-oxo-9,9a-dihydrodibenzo[b,d]furan-4-carboxamide]	37
COc1cc(O)c2c(c1C(=O)NCc1c(C)cc(F)c3ccccc13)OC1=CC(O)=C(C(C)=O)C(=O)[C@]12C [Example 180, (9aS)-8-Acetyl-N-[(4-fluoro-2-methyl-1-naphthyl)methyl]-1,7-dihydroxy-3-methoxy-9a-methyl-9-oxo-9,9a-dihydrodibenzo[b,d]furan-4-carboxamide]	60
COc1cc(O)c2c(c1C(=O)NCc1c(C)ccc3ccc(Cl)cc13)OC1=CC(O)=C(C(C)=O)C(=O)[C@]12C [Example 181, (9aS)-8-Acetyl-N-[(7-chloro-2-methyl-1-naphthyl)methyl]-1,7-dihydroxy-3-methoxy-9a-methyl-9-oxo-9,9a-dihydrodibenzo[b,d]furan-4-carboxamide]	45
COc1cc(O)c2c(c1C(=O)NCc1c(C)ccc3ccc(F)cc13)OC1=CC(O)=C(C(C)=O)C(=O)[C@]12C [Example 182, (9aS)-8-Acetyl-N-[(7-fluoro-2-methyl-1-naphthyl)methyl]-1,7-dihydroxy-3-methoxy-9a-methyl-9-oxo-9,9a-dihydrodibenzo[b,d]furan-4-carboxamide]	50
COc1cc(O)c2c(c1C(=O)NCc1c(C)ccc3c(F)cccc13)OC1=CC(O)=C(C(C)=O)C(=O)[C@]12C [Example 183, (9aS)-8-Acetyl-N-[(5-fluoro-2-methyl-1-naphthyl)methyl]-1,7-dihydroxy-3-methoxy-9a-methyl-9-oxo-9,9a-dihydrodibenzo[b,d]furan-4-carboxamide]	38
CCc1ccc2ccc(F)cc2c1CNC(=O)c1c(OC)cc(O)c2c1OC1=CC(O)=C(C(C)=O)C(=O)[C@]12C [Example 184, (9aS)-8-Acetyl-N-[(2-ethyl-7-fluoro-1-naphthyl)methyl]-1,7-dihydroxy-3-methoxy-9a-methyl-9-oxo-9,9a-dihydrodibenzo[b,d]furan-4-carboxamide]	37
CCc1ccc2c(F)cc(F)cc2c1CNC(=O)c1c(OC)cc(O)c2c1OC1=CC(O)=C(C(C)=O)C(=O)[C@]12C [Example 185, (9aS)-8-Acetyl-N-[(2-ethyl-5,7-difluoro-1-naphthyl)methyl]-1,7-dihydroxy-3-methoxy-9a-methyl-9-oxo-9,9a-dihydrodibenzo[b,d]furan-4-carboxamide]	27
CCc1ccc2ccc(Cl)cc2c1CNC(=O)c1c(OC)cc(O)c2c1OC1=CC(O)=C(C(C)=O)C(=O)[C@]12C [Example 186, (9aS)-8-Acetyl-N-[(7-chloro-2-ethyl-1-naphthyl)methyl]-1,7-dihydroxy-3-methoxy-9a-methyl-9-oxo-9,9a-dihydrodibenzo[b,d]furan-4-carboxamide]	53
CCc1cc(F)c2ccccc2c1CNC(=O)c1c(OC)cc(O)c2c1OC1=CC(O)=C(C(C)=O)C(=O)[C@]12C [Example 187, (9aS)-8-Acetyl-N-[(2-ethyl-4-fluoro-1-naphthyl)methyl]-1,7-dihydroxy-3-methoxy-9a-methyl-9-oxo-9,9a-dihydrodibenzo[b,d]furan-4-carboxamide]	44
CCc1ccc2cc(F)c(F)cc2c1CNC(=O)c1c(OC)cc(O)c2c1OC1=CC(O)=C(C(C)=O)C(=O)[C@]12C [Example 188, (9aS)-8-Acetyl-N-[(2-ethyl-6,7-difluoro-1-naphthyl)methyl]-1,7-dihydroxy-3-methoxy-9a-methyl-9-oxo-9,9a-dihydrodibenzo[b,d]furan-4-carboxamide]	57
